Reference: US20250059574A1, “METHODS FOR PREPARING (2S,3R)-P-METHYLSULFONYLPHENYLSERINE” (TAIZHOU UNIVERSITY, priority 2023, published 2025)

Test system: transaldolase (Taizhou Lingfeng Biotechnology Co., Ltd., LF145)
Test: Effect of acetaldehyde on the activity of transaldolase
Type: biochemical
Settings: reaction 10 min, 35° C., HPLC, without acetaldehyde 3.31 g/L
Procedure: In a 50 mL round-bottom flask, 10 mL of a reaction system contained 14 g/L p-methylsulfonylbenzaldehyde, 10.5 g/L threonine, 1 g/L pyridoxal phosphate, and 1 mL of transaldolase (Taizhou Lingfeng Biotechnology Co., Ltd., LF145), different concentrations (0, 1 g/L, 5 g/L, 10 g/L, and 20 g/L) of acetaldehyde were respectively prepared, the mixture was shaken in a water bath at 35° C. for 10 min, and the content of D-acid produced was detected by HPLC.

## CC=O [acetaldehyde]
1 g/L acetaldehyde added
  (2S,3R)-p-methylsulfonylphenylserine produced: 1.76 g/L
5 g/L acetaldehyde added
  (2S,3R)-p-methylsulfonylphenylserine produced: 0.66 g/L
10 g/L acetaldehyde added
  (2S,3R)-p-methylsulfonylphenylserine produced: 0.303 g/L
20 g/L acetaldehyde added
  (2S,3R)-p-methylsulfonylphenylserine produced: 0.153 g/L
